{
  "source": "paper PMC5560554",
  "about": "“Targeting of CDK9 with indirubin 3’-monoxime safely and durably reduces HIV viremia in chronically infected humanized mice” (PLoS ONE, 2017)",
  "system": "HIV-1 NL4-3",
  "test": "Drug susceptibility assay in PHA-activated PBMCs (HIV p24 ELISA day 7)",
  "format": "cell-based",
  "details": "for decrease of ART EC50 value at 1 μM IM: HIV-1 NL4-3 in PBMCs, EC50 without IM vs with 1 μM IM; for EC50: Human immunodeficiency virus 1, NL43, PBMC, 168 h, HIV NL4-3 in PBMCs, p24 day 7, (95% CI) in cell; for P24: PBMCs, NL4-3, day 7",
  "protocol": "The ARTs tenofovir, raltegravir and indinavir were obtained from the NIH AIDS Research and Reference Reagent Program (Gaithersburg, MD). Drug susceptibility assays were performed in PBMCs as previously. Briefly, donor PBMCs were activated by culture with phytohemagglutinin (PHA) for 3 days. Activated PBMCs were infected with HIV (M.O.I of 0.001) for 2 hours in the absence of IM or ARTs, washed to remove non-adsorbed virus, and plated in culture medium containing IL-2 and various dilutions of IM and ARTs alone and in combination. On day 3, fresh medium with fresh drug was added to the cultures. On day 7, cultures were evaluated for HIV production by measuring HIV p24 levels in the culture supernatants by ELISA (PerkinElmer Life Sciences, Inc., Boston, Massachusetts). Data were normalized to p24 levels in drug untreated controls (100%) and EC50 values determined by fitting the data to sigmoidal dose-response (variable slope) curves using GraphPad Prism 5.0 software.\nA potential use of CDK9 inhibitor for the treatment of HIV will probably be in combination with ARTs from other classes. We thus evaluated the antiviral interaction between IM and ARTs from the NRTI, integrase and protease inhibitor classes in PBMCs infectivity assays in vitro. We used the virus strain HIV-1 NL4-3 to ensure a robust viral replication in the assays. Although HIV-1 NL4-3 differs from HIV-1 BaL in usage of coreceptor for cell entry, it is expected to have similar sensitivity to the tested ARTs. […] These enhancements of ART potencies by IM are consistent with targeting of different steps of the HIV cycle by IM and the tested ARTs.",
  "key": {"[1]": {"details": "read-out: Geometric mean ART EC50, + 1μM IM"}, "[2]": {"details": "read-out: Geometric mean ART EC50, No IM"}},
  "note": "Like-named read-outs stand apart in the source and are kept apart here.",
  "data": [
    {"smiles": "CC(C)(C)NC(=O)[C@@H]1CN(Cc2cccnc2)CCN1C[C@@H](O)C[C@@H](Cc1ccccc1)C(=O)N[C@H]1c2ccccc2C[C@H]1O", "note": "[IND, indinavir]", "values": [
      {"measurement": "decrease of ART EC50 value at 1 μM IM", "value": 2.2, "unit": "fold"},
      {"measurement": "EC50", "setting": "+ 1μM IM, read-out: Geometric mean ART EC50", "value": 3.55, "unit": "nM"},
      {"measurement": "EC50", "setting": "No IM, read-out: Geometric mean ART EC50", "value": 7.74, "unit": "nM"},
      {"measurement": "P24", "setting": "IND 1.8 nM, + IM", "value": 2.00, "unit": "ng/mL"},
      {"measurement": "P24", "setting": "IND 1.8 nM, No IM", "value": 41.00, "unit": "ng/mL"},
      {"measurement": "P24", "setting": "IND 5.5 nM, + IM", "value": 2.30, "unit": "ng/mL"},
      {"measurement": "P24", "setting": "IND 5.5 nM, No IM", "value": 37.00, "unit": "ng/mL"},
      {"measurement": "P24", "setting": "IND 16.6 nM, + IM", "value": 0.70, "unit": "ng/mL"},
      {"measurement": "P24", "setting": "IND 16.6 nM, No IM", "value": 17.00, "unit": "ng/mL"},
      {"measurement": "P24", "setting": "IND 50 nM, + IM", "value": 0.01, "unit": "ng/mL"},
      {"measurement": "P24", "setting": "IND 50 nM, No IM", "value": 0.01, "unit": "ng/mL"},
      {"measurement": "P24", "setting": "IND 150 nM, + IM", "value": 0.01, "unit": "ng/mL"},
      {"measurement": "P24", "setting": "IND 150 nM, No IM", "value": 0.01, "unit": "ng/mL"}
    ]},
    {"smiles": "C[C@H](Cn1cnc2c(N)ncnc21)OCP(=O)(O)O", "note": "[TDF, tenofovir]", "values": [
      {"measurement": "decrease of ART EC50 value at 1 μM IM", "value": 3, "unit": "fold"},
      {"measurement": "EC50", "setting": "[1]", "value": 190, "unit": "nM"},
      {"measurement": "EC50", "setting": "[2]", "value": 600, "unit": "nM"},
      {"measurement": "P24", "setting": "TDF 0.01 µM, + IM", "value": 10.0, "unit": "ng/mL"},
      {"measurement": "P24", "setting": "TDF 0.01 µM, No IM", "value": 63.0, "unit": "ng/mL"},
      {"measurement": "P24", "setting": "TDF 0.03 µM, + IM", "value": 9.0, "unit": "ng/mL"},
      {"measurement": "P24", "setting": "TDF 0.03 µM, No IM", "value": 61.0, "unit": "ng/mL"},
      {"measurement": "P24", "setting": "TDF 0.1 µM, + IM", "value": 6.6, "unit": "ng/mL"},
      {"measurement": "P24", "setting": "TDF 0.1 µM, No IM", "value": 48.0, "unit": "ng/mL"},
      {"measurement": "P24", "setting": "TDF 0.3 µM, + IM", "value": 3.8, "unit": "ng/mL"},
      {"measurement": "P24", "setting": "TDF 0.3 µM, No IM", "value": 35.0, "unit": "ng/mL"},
      {"measurement": "P24", "setting": "TDF 1 µM, + IM", "value": 1.7, "unit": "ng/mL"},
      {"measurement": "P24", "setting": "TDF 1 µM, No IM", "value": 17.0, "unit": "ng/mL"},
      {"measurement": "P24", "setting": "TDF 3 µM, + IM", "value": 0.7, "unit": "ng/mL"},
      {"measurement": "P24", "setting": "TDF 3 µM, No IM", "value": 4.0, "unit": "ng/mL"},
      {"measurement": "P24", "setting": "TDF 10 µM, + IM", "value": 0.3, "unit": "ng/mL"},
      {"measurement": "P24", "setting": "TDF 10 µM, No IM", "value": 0.6, "unit": "ng/mL"}
    ]},
    {"smiles": "Cc1nnc(C(=O)NC(C)(C)c2nc(C(=O)NCc3ccc(F)cc3)c(O)c(=O)n2C)o1", "note": "[RAL, raltegravir]", "values": [
      {"measurement": "decrease of ART EC50 value at 1 μM IM", "value": 3.3, "unit": "fold"},
      {"measurement": "EC50", "setting": "[1]", "value": 2.12, "unit": "nM"},
      {"measurement": "EC50", "setting": "[2]", "value": 6.98, "unit": "nM"},
      {"measurement": "P24", "setting": "RAL 0.05 nM, + IM", "value": 9.50, "unit": "ng/mL"},
      {"measurement": "P24", "setting": "RAL 0.05 nM, No IM", "value": 27.0, "unit": "ng/mL"},
      {"measurement": "P24", "setting": "RAL 0.15 nM, + IM", "value": 6.00, "unit": "ng/mL"},
      {"measurement": "P24", "setting": "RAL 0.15 nM, No IM", "value": 23.0, "unit": "ng/mL"},
      {"measurement": "P24", "setting": "RAL 0.5 nM, + IM", "value": 6.50, "unit": "ng/mL"},
      {"measurement": "P24", "setting": "RAL 0.5 nM, No IM", "value": 27.0, "unit": "ng/mL"},
      {"measurement": "P24", "setting": "RAL 1.5 nM, + IM", "value": 5.00, "unit": "ng/mL"},
      {"measurement": "P24", "setting": "RAL 1.5 nM, No IM", "value": 26.0, "unit": "ng/mL"},
      {"measurement": "P24", "setting": "RAL 5 nM, + IM", "value": 2.30, "unit": "ng/mL"},
      {"measurement": "P24", "setting": "RAL 5 nM, No IM", "value": 17.0, "unit": "ng/mL"},
      {"measurement": "P24", "setting": "RAL 15 nM, + IM", "value": 1.10, "unit": "ng/mL"},
      {"measurement": "P24", "setting": "RAL 15 nM, No IM", "value": 2.8, "unit": "ng/mL"},
      {"measurement": "P24", "setting": "RAL 45 nM, + IM", "value": 0.01, "unit": "ng/mL"},
      {"measurement": "P24", "setting": "RAL 45 nM, No IM", "value": 0.6, "unit": "ng/mL"}
    ]}
  ]
}
